These results are taken from ChEMBL document CHEMBL5728563, “Aminopyrazine derivatives as PI3K-γ inhibitors” (2021).

Some results are limits rather than exact numbers.

The target of experiment [1] is T1, Phosphatidylinositol 4,5-bisphosphate 3-kinase catalytic subunit delta isoform (Homo sapiens, UniProt O00329).
T1 sequence (O00329 whole entry): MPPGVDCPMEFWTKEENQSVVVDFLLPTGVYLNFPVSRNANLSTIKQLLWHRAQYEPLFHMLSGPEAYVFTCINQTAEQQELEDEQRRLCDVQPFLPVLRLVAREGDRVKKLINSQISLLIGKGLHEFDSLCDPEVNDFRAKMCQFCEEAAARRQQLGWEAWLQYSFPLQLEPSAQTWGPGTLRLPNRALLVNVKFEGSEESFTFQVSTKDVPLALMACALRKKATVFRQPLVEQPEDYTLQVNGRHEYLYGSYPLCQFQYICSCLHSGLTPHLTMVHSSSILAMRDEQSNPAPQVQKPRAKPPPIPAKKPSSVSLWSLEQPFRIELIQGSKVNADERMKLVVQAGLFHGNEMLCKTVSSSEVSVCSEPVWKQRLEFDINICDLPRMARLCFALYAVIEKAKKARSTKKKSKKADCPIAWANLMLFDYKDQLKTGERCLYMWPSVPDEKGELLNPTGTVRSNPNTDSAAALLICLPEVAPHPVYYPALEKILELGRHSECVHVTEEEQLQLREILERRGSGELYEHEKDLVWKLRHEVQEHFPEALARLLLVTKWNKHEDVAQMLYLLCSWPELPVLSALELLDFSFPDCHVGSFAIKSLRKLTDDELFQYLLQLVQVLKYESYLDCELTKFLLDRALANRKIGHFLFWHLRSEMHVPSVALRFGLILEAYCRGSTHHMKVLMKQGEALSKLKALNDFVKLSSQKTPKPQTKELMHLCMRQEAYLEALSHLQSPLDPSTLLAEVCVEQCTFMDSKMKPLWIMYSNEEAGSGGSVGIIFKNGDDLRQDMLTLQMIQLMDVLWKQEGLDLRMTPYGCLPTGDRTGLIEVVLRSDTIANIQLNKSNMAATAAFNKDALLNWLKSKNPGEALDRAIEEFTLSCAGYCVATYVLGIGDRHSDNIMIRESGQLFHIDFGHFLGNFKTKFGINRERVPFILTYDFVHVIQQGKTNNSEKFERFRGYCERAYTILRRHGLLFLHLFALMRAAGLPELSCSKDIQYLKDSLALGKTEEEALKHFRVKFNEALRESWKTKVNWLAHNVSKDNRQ
Put plainly: (§1) PI3Kdelta Scintillation Proximity Assay: Materials: [γ-33P]ATP (10 mCi/mL) and Wheat Germ Agglutinin (WGA) YSi SPA Scintillation Beads was purchased from Perkin Elmer (Waltham, Mass.). Lipid kinase substrate, D-myo-Phosphatidylinositol 4,5-bisphosphate (PtdIns(4,5)P2)D (+)-sn-1,2-di-O-octanoylglyceryl, 3-O-phospho linked (PIP2), CAS 204858-53-7, was purchased from Echelon Biosciences (Salt Lake City, Utah). PI3Kδ (p110δ/p85α) Recombinant Human Protein was purchased from Eurofins (St Charles, Mo.). ATP, MgCl2, DTT, EDTA, MOPS and CHAPS were purchased from Sigma Aldrich (St. Louis, Mo.).The kinase reaction was conducted in polystyrene 384-well Greiner Bio-one white plate from Thermo Fisher Scientific in a final volume of 25 μL. Inhibitors were first diluted serially in DMSO and added to the plate wells before the addition of other reaction components. The final concentration of DMSO in the assay was 2%. The PI3Kδ assay was carried out at room temperature in 20 mM MOPS, pH 6.7, 10 mM MgCl2, 5 mM DTT and CHAPS 0.03%. Reactions were initiated by the addition of ATP, the final reaction mixture consisted of 20 μM PIP2, 2 μM ATP, 0.5 μCi [γ-33P] ATP, 3.4 nM PI3Kδ. Reactions were incubated for 120 min and terminated by the addition of 40 μL SPA beads suspended in quench buffer: 163 mM potassium phosphate pH 7.8, 20% glycerol, 25 mM EDTA. The final concentration of SPA beads is 1.0 mg/mL. […].

In experiment [2] the target is Phosphatidylinositol 4,5-bisphosphate 3-kinase catalytic subunit gamma isoform (Homo sapiens, UniProt P48736). Described as §1, with “PI3K-gamma” for “PI3Kdelta”, “PI3Kγ (p110γ)” for “PI3Kδ (p110δ/p85α)”, “Life technology (Grand Island, N.Y.).” for “Eurofins (St Charles, Mo.).”, “PI3Kγ” for “PI3Kδ”, “13” for “3.4”, “PI3Kγ.” for “PI3Kδ.”.
Sequence of Phosphatidylinositol 4,5-bisphosphate 3-kinase catalytic subunit gamma isoform (P48736 whole entry, canonical isoform): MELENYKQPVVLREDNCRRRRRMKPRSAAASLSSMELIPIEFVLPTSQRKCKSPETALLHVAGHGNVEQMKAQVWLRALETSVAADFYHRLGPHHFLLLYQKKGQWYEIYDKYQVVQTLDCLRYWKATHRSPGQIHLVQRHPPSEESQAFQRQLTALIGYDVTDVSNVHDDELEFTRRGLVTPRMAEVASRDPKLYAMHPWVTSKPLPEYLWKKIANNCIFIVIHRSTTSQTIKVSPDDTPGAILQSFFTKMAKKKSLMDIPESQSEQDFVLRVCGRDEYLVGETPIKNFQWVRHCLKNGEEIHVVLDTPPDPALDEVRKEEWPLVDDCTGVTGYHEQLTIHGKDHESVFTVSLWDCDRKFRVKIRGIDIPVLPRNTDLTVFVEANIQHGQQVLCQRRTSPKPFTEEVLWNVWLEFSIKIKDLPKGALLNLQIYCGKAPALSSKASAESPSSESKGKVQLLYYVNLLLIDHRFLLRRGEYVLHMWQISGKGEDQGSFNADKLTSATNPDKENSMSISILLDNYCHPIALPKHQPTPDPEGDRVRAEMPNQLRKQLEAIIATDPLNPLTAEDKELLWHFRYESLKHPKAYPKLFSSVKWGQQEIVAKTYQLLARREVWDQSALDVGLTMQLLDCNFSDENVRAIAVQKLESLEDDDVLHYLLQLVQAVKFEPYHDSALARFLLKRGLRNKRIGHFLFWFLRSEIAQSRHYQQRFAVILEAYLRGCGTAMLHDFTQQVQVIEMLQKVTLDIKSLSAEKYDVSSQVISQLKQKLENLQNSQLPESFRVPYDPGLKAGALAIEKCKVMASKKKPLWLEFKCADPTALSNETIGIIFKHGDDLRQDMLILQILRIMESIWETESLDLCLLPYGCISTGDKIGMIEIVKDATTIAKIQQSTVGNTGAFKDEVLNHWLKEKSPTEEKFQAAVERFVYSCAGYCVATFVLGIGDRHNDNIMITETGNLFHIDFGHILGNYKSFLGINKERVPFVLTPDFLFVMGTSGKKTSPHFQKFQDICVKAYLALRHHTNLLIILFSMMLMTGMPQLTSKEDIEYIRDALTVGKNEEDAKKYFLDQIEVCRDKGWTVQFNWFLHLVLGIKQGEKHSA

With `Cc1ncc(-c2nc(-c3cc(C(O)(C(N)=O)C(F)(F)F)ccc3C)cnc2N)s1` (configuration not stated), the IC50 in experiment [1] and in experiment [2] was below 100 nM each time.
